Values after ≈ are worked out from the molar mass of the structure shown.
What was measured:
[1] = tested on: IL-6; assay: Paw extract biomarker ELISA, CIA mice: IL-6; format: in vivo, mouse; conditions: paw extracts from CIA mice
Description: (§1) • 1. Male DBA/1 mice were immunized i.d. with an emulsion of 200 μg bovine type II collagen in Complete Freund's Adjuvant. • 2. On day 21, mice received i.d. boost of 100 μg collagen in Incomplete Freund's Adjuvant • 3. Compounds were administered i.p. daily for 7 days starting from disease onset (day 3-4 after boost). • 4. Foot swelling was measured by an engineering micrometer and disease severity was scored accordingly (1, erythema and mild swelling confined to the tarsal or ankle joint; 2, erythema and mild swelling extending from the ankle to the mid-foot; 3, erythema and moderate swelling extending from the ankle to the metatarsal joints; 4, erythema and severe swelling encompassing the ankle, foot, and digits). • 5. Change (Δ) of paw thickness=sum of paw thickness from 4 paws of a mouse (experimental)−sum of baseline paw thickness from 4 paws of the same mouse. • 6. % inhibition=cumulative A paw thickness (disease group−compound-treated group)/cumulative A paw thickness (disease group)
(§2) • 1. Paws were collected from mice after 5-7 days of dosing and dissected free of skin. • 2. The paws were then homogenized in ice-cold PBS (2 ml/4 paws/mouse) containing 1× protease inhibitor using a Polytron homogenizer. • 3. Debris and particles were removed from the homogenized samples by centrifugation. • 4. Liquid layers were collected for MMP-9, IL-1, IL-6, RANKL, MCP-1, and TNFα analysis using ELISA kits from R & D System.

[2] = tested on: E. coli 25922; assay: Antibacterial activity MIC, Gram- (Table 9); format: cell-based; conditions: Escherichia coli, CAMHB, 35° C., approximately 18 hr
Method in brief: (§3)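 Broth microdilution in cation-adjusted Mueller Hinton broth, compound dissolved in DMSO and serially diluted from 200 μg/ml down to 0.098 μg/ml. Log-phase inoculum at final ~5×10^5 CFU/ml, incubated ~18 h at 35 °C in ambient air; MIC is the lowest concentration inhibiting growth, read by plate reader or visually.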

[3] = Pharmacokinetics in rats after i.v. and oral dosing; format: in vivo; conditions: rat; for bioavailability: male, CD/IGS, after oral dosing of 5 mg/kg, read-out: PK Parameters (Rat) % F, fraction of absorption; for bioavailability / half-life: plasma; for half-life: male CD/IGS rats, 1 mg/kg i.v. or 5 mg/kg oral, read-out: PK Parameters (Rat) T1/2 (converted)
Description: Pre-cannulated (jugular vein and carotid artery for i.v. group and carotid artery for oral group) male CD/IGS rats (approximately 250 g) were used. Rats were fasted overnight prior to dosing with access to food restored 2 hours after dosing. Rats were administered with approximately 0.25 mL compound (1 mg/kg dose) for i.v. route (via jugular vein over 20 seconds) or 0.5 mL solution (5 mg/kg dose) orally. Blood (300 μL) was collected in tubes with EDTA anticoagulant at various time points, centrifuged and plasma collected and stored frozen at −20° C. Animals were euthanized by CO2 following the final blood collection. Plasma was extracted (0.1% trifluoroacetic acid in 67% acetonitrile/33% water) and levels of compound quantified by HPLC/MS against a standard curve.

[4] = tested on: collagen-induced arthritis (CIA) in male DBA/1 mice; assay: CIA model, Example 3 (cumulative scores vs untreated controls); format: in vivo; conditions: Mus musculus
Method in brief: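 Immunised intradermally with bovine type II collagen in CFA and boosted at day 21 in IFA. After onset, tetracycline derivatives given daily i.p. or orally for 8 to 15 days. Daily visual inflammation scores (0–4 scale) and micrometer paw thickness summed into cumulative scores.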

[5] = tested on: MCP-1; assay: Paw extract biomarker ELISA, CIA mice: MCP-1; format: in vivo, mouse; conditions: paw extracts from CIA mice
Description: as §1, §2

[6] = tested on: IL-1; assay: Paw extract biomarker ELISA, CIA mice: IL-1; format: in vivo, mouse; conditions: paw extracts from CIA mice
Description: as §1, §2

[7] = tested on: E. coli ATCC25922 (tetracycline sensitive); assay: E. coli MIC, broth micro-dilution per CLSI guidelines (Table 3); format: cell-based; conditions: for MIC: Escherichia coli, E. coli ATCC25922, cation-adjusted Mueller Hinton broth
[8] = tested on: RANKL; assay: Paw extract biomarker ELISA, CIA mice: RANKL; format: in vivo, mouse; conditions: paw extracts from CIA mice
Description: as §1, §2

[9] = tested on: collagen-induced arthritis (CIA) in male DBA/1 mice; assay: Murine collagen-induced arthritis (CIA) model, Example 2; format: in vivo, mouse; conditions: for % Inhibition (Change in Paw Thickness) AVG / % Inhibition (Clinical Score) AVG / Change in Paw Thickness (mm) Mean: 25 mg/kg/day i.p.; for % Inhibition (Change in Paw Thickness) AVG / % Inhibition (Clinical Score) AVG: dosed after disease onset; for EC50 in inflammation suppression in CIA mice: i.p. daily; for Effects on reduction of paw swelling and clinical score compared to either minocycline or methotrexate / joint inflammation when administered after disease onset: murine CIA model
Description: Four non-antibacterial analogues of minocycline (J, W, AF and AT) were synthesized and tested in the murine model of the disease, collagen-induced arthritis (CIA) (See supra). Male DBA/1 mice were immunized intradermally with 200 μg of bovine type II collagen and boosted with collagen three weeks later. Minocycline and four non-antibacterial minocycline derivatives were administered i.p. beginning after disease onset. Paw thickness was measured and animals were scored daily.
as §1

[10] = tested on: Protein synthesis (E. coli S30 Extract System); assay: Protein synthesis inhibition, in vitro transcription/translation assay (E. coli S30 Extract System for Circular DNA); format: biochemical
[11] = tested on: S. aureus RN450; assay: Antibacterial activity MIC, Gram+ (Table 9); format: cell-based; conditions: Staphylococcus aureus, CAMHB, 35° C., approximately 18 hr
Method in brief: as §3

[12] = tested on: MMP-9; assay: Paw extract biomarker ELISA, CIA mice: MMP-9; format: in vivo, mouse; conditions: paw extracts from CIA mice
Description: as §1, §2

[13] = tested on: cytokines (IL-1, IL-6, RANKL and MCP-1) and a matrix metalloproteinase (MMP-9); assay: Paw extract biomarker ELISA, CIA mice: whole panel (statements in words); format: in vivo, mouse
Description: as §1, §2

Structure (SMILES)	Percent level of Biomarker Tissue [c] Compared to Untreated Control, IL-6 AVG [1]	MIC [2]	bioavailability [3]	bio-available after oral dosing in rats [3]	half-life [3]	inhibition in vivo at 12 mg/kg [4]	inhibition in vivo at 25 mg/kg [4]	Percent level of Biomarker Tissue [c] Compared to Untreated Control, MCP-1 AVG [5]	Percent level of Biomarker Tissue [c] Compared to Untreated Control, IL-1 AVG [6]	anti-bacterial activity compared to minocycline [7]	MIC [7]	Percent level of Biomarker Tissue [c] Compared to Untreated Control, RANKL AVG [8]	% Inhibition (Change in Paw Thickness) AVG [9]	% Inhibition (Clinical Score) AVG [9]	EC50 in inflammation suppression in CIA mice [9]	Change in Paw Thickness (mm) Mean ([9]; day 1 of dosing)	Change in Paw Thickness (mm) Mean ([9]; day 2 of dosing)	Change in Paw Thickness (mm) Mean ([9]; day 3 of dosing)	Change in Paw Thickness (mm) Mean ([9]; day 4 of dosing)	Change in Paw Thickness (mm) Mean ([9]; day 5 of dosing)	also measured
CC(C)c1cc(N(C)C)c2c(c1O)C(=O)C1=C(O)[C@]3(O)C(=O)C(C(N)=O)=C(O)[C@@H](N(C)C)[C@@H]3C[C@@H]1C2 [Compound J]	68%	> 64 µg/mL	65%	bio-available	2.5 h	34%	71%	60%	52%	no anti-bacterial activity	> 64 µg/mL	32%	71%	45%	14 mg/kg/day i.p.	0.47 mm	0.39 mm	0.33 mm	0.48 mm	0.36 mm	Change in Paw Thickness (mm) Mean ([9]; day 6 of dosing): 0.37 mm; Change in Paw Thickness (mm) Mean ([9]; day 7 of dosing): 0.50 mm; Change in Paw Thickness (mm) Mean ([9]; day 8 of dosing): 0.65 mm; Effects on reduction of paw swelling and clinical score compared to either minocycline or methotrexate [9]: greater; joint inflammation when administered after disease onset [9]: inhibited joint inflammation; IC50 [10]: > 100 µM; MIC [11]: 2 µg/mL (≈ 4 µM); Percent level of Biomarker Tissue [c] Compared to Untreated Control, MMP-9 AVG [12]: 68%; inhibition of inflammatory/osteoclastic cytokines (MMP-9, IL-1, IL-6, MCP-1, RANKL) in vivo [13]: better than minocycline
COC(=O)c1cc(N(C)C)c2c(c1O)C(=O)C1=C(O)[C@]3(O)C(=O)C(C(N)=O)=C(O)C[C@@H]3C[C@@H]1C2 [Compound W]	28%	> 64 µg/mL	52%	bio-available	3 h	32%	60%	28%	32%	no anti-bacterial activity	> 64 µg/mL	27%	60%	40%	20 mg/kg/day i.p.	0.71 mm	0.41 mm	0.46 mm	0.56 mm	0.51 mm	inhibition in vivo at 6 mg/kg ([4]; Dose 6 mg/kg): 25%; Change in Paw Thickness (mm) Mean ([9]; day 6 of dosing): 0.45 mm; Change in Paw Thickness (mm) Mean ([9]; day 7 of dosing): 0.35 mm; Change in Paw Thickness (mm) Mean ([9]; day 8 of dosing): 0.60 mm; Effects on reduction of paw swelling and clinical score compared to either minocycline or methotrexate [9]: greater; joint inflammation when administered after disease onset [9]: inhibited joint inflammation; IC50 [10]: > 100 µM; MIC [11]: 4 µg/mL (≈ 8.47 µM); Percent level of Biomarker Tissue [c] Compared to Untreated Control, MMP-9 AVG [12]: 72%; inhibition of inflammatory/osteoclastic cytokines (MMP-9, IL-1, IL-6, MCP-1, RANKL) in vivo [13]: better than minocycline
